According to EPA's ToxValDB 9.5 (doi:10.2903/j.efsa.2011.2417):
Converted amounts (≈) assume the structure as drawn.

Legend:
Anas platyrhynchos = settings: short-term; oral; feed; mortality
Apis mellifera = settings: acute; duration: 48 hours; oral; unspecified; mortality
Canidae = settings: oral, Dog Other, hematological
Colinus virginianus = settings: mortality
Daphnia magna = settings: chronic/long-term; duration: 21 days; reproduction
Rattus norvegicus = settings: chronic; duration: 2 years; organ weight
Tagia sp. = settings: acute; mortality
Typhlodromus pyri = settings: not reported; mortality

CCSC(C)CC1CC(=O)C(C(CC)=NOC/C=C/Cl)=C(O)C1 (configuration not stated) [Clethodim]
LC50 (Anas platyrhynchos): > 851 mg/kg-day
LD50 (Apis mellifera): > 43 µg/piece
NOAEL (Canidae; chronic, duration: 1 years): 21 mg/kg-day
NOAEL (Canidae; subchronic, duration: 90 days): 21 mg/kg-day
LD50 (Colinus virginianus; acute, oral): > 1640 mg/kg
NOEL (Colinus virginianus; reproduction developmental): 17 mg/kg-day
NOEC (Daphnia magna): 49 mg/L
LC50 (Oncorhynchus mykiss; acute, duration: 96 hours, mortality): 25 µg/mL (≈ 69.5 µM)
NOEC (Oncorhynchus mykiss; chronic/long-term, duration: 21 days): 3.9 mg/L
NOAEL (Rattus norvegicus): 16 mg/kg-day
LC50 (Tagia sp.): 129 mg/kg
LEL (Typhlodromus pyri): 9.6 g/ha
